Where no end group is shown, it is not given here.
What was measured:
[1] = Cytotoxicity assay in uninfected HFF-1 cells; details: human
Method: In parallel, for each DNA condensing compound, we determined the cytotoxicity concentration (CC50 value) using standard in vitro cellular replication assays in human foreskin fibroblast (HFF) cells (used as a standard for herpesvirus replication in vitro assays for antiviral compound tests)[48]. Cytotoxicity assays were performed on a parallel set of six-well plates containing confluent monolayers of HFF-1 cells at the same cell amount as used for antiviral plaque reduction assays for EC50 value determination, but cells were uninfected[48].
Cytotoxicity assays were performed on a parallel set of six-well plates containing HFF-1 cells that received the same compound concentrations as used for the antiviral assays but remained uninfected. […]
Each compound was evaluated in a standard cytotoxicity assay by standard methods [100]. […] The optical density was then determined at 550 nm and CC50 values were interpolated from the experimental data.
The inhibition of either Vero cell or HFF-1 cell proliferation was used to refine estimates of cytotoxicity for the compounds and was performed according to standard procedures [101]. […] The plates were incubated for 72 h at 37°C; the cells were then dislodged with trypsin and counted on a Beckman Coulter Counter. […]

[2] = In vivo toxicity studies in mice (NIH/NIAID preclinical service); details: for %Lymphocyte / Hematocrit / WBC / AST / Alb:Glob Ratio / Albumin / Amylase / Bile Acids / Cholesterol / Creatine Kinase / GGT / Globin / Total Protein / Triglyceride / BUN / Ca:Phos Ratio / Calcium / Chloride / Glucose / K / Na / Na:K Ratio / Phosphorus / Uric Acid: Mean; for %Lymphocyte / Hematocrit / WBC: CBC (n=1-2); for AST / Alb:Glob Ratio / Albumin / Amylase / Bile Acids / Cholesterol / Creatine Kinase / GGT / Globin / Total Protein / Triglyceride: LIVER (n=5); for BUN / Ca:Phos Ratio / Calcium / Chloride / Glucose / K / Na / Na:K Ratio / Phosphorus / Uric Acid: RENAL (n=5)
Method: A control group was treated with PBS. […] No signs of distress or significant weight loss were observed during the 4 days of treatment. […]
B. In vivo toxicity studies in mice for bPEI 600 and DAB-Am-4. Experiments were conducted through NIAID/NIH preclinical service agreement No HHSN272201700017I/ […]
Procedures and Endpoints:
1- Baseline weights of all mice
2- IP treatment (twice a day, for 4 days)
3- Daily assessment of weights and condition
4- All animals sacrificed the following morning after the last evening treatment 5- Blood samples collected by IC stick for lab tests (liver, spleen and blood profiles) 6- Internal organs examined for signs of gross tissue toxicity
1. Toxicity evaluation of bPEI 600 Da in mice.
A toxicity screen was performed in uninfected mice treated with 3 doses of bPEI 600 Da, administered for 4 days. In this study, 3 doses of 5, 10 and 25 mg/kg/day were administered twice daily IP for 4 days (n=4/group). A control group was treated with the vehicle (PBS). The mice were examined daily and the weights and general condition were recorded daily. To examine liver, renal and blood function parameters, blood samples were obtained by intracardiac puncture at the end of the study (the following day after last dose) and the mice were sacrificed to examine the internal organs for signs of gross tissue toxicity.
The weights were recorded
In order to confirm the results of the lab results obtained in the toxicity study, a second group of slightly larger mice were treated with the high and the low doses of bPEI 600 Da (25 mg/kg and 5 mg/kg, n=6/group) and the vehicle control (PBS, n=4) for 4 days. Blood samples were collected at the end of the study for liver and renal chemistry profiles. The results are shown in the next […]
REN AL PBS 5 mg/kg 25 mg/kg
LIVER PBS 5 mg/kg 25 mg/kg
Al b:Gl ob R a ti o 1 1 1 […]
obtained from the second group of mice treated with bPEI 600 Da for 4 days.
No signs of distress or significant weight loss were ere observed during the […]
show significant differences with the results obtained in the PBS treated group of control mice.
Statistical analysis: Means were compared by Student’s t test, and mortality was compared by Fisher’s exact test, where applicable.
Ethics regulation of Laboratory animals: Animals were housed in facilities approved by the Association for Assessment and Accreditation of Laboratory Animal Care and Use Committee
2. Toxicity evaluation of DAB-Am-4 in mice.
A toxicity screen in uninfected mice was performed. 2 doses of 5 and 25 mg/kg/day were administered twice daily IP for 4 days (n=6/group). A control group was treated with the vehicle […]
The mice were examined daily and the weights and general condition were recorded. […]

[3] = mice, 25 mg/kg/day twice daily IP, 4 days
[4] = mice, 5 mg/kg/day twice daily IP, 4 days

From the text for MEF cell line: We also determined cytotoxicity in the murine MEF cell line, relevant to animal studies.

## RRRRR [Arg^5+]
[1]
  CC50 at 7 days: 83 µM

## NCCCN(CCCN)CCCCN(CCCN)CCCN [DAB-Am-4]
[2]; [3]
  weight loss: ~ 10%
  weight loss from baseline: 2.0 g
  %Lymphocyte: 61%
  Hematocrit: 36
  WBC: 4
  AST: 414
  Alb:Glob Ratio: 1
  Albumin: 3
  Amylase: 760
  Bile Acids: 13
  Cholesterol: 85
  Creatine Kinase: 3089
  GGT: < 1
  Globin: 2
  Total Protein: 5
  Triglyceride: 149
  BUN: 36
  Ca:Phos Ratio: 1
  Calcium: 9
  Chloride: 106
  Glucose: 182
  K: 6
  Na: 147
  Na:K Ratio: 25
  Phosphorus: 9
  Uric Acid: 5
[2]; mice, 5, 10 and 25 mg/kg/day, twice daily IP, 4 days
  tolerability: tolerated well
[2]; mice, 5 and 25 mg/kg/day DAB-Am-4, 5 mg/kg/day DAB-Am-8
  signs of acute toxicity (lab tests): no conclusive signs of acute toxicity
[2]; mice, low dose 5 mg/kg/day
  signs of distress during the observation period: no significant signs
[2]; [4]
  %Lymphocyte: 67%
  Hematocrit: 43
  WBC: 7
  AST: 402
  Alb:Glob Ratio: 1
  Albumin: 3
  Amylase: 792
  Bile Acids: 134
  Cholesterol: 91
  Creatine Kinase: 2340
  GGT: < 1
  Globin: 2
  Total Protein: 5
  Triglyceride: 118
  BUN: 35
  Ca:Phos Ratio: 1
  Calcium: 9
  Chloride: 104
  Glucose: 221
  K: 7
  Na: 143
  Na:K Ratio: 22
  Phosphorus: 11
  Uric Acid: 3
HFF-1 cells
  CC50: 15 µM
MEF cell line
  CC50: 22 µM

— article PMC7377361, “Pressurized DNA state inside herpes capsids—A novel antiviral target” (PLoS Pathogens, 2020)
